# Experimental data from PubChem BioAssay (NCI).
#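 GI50: concentration for 50% inhibition of growth. At the TGI there is no net growth.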
# Columns and labels:
# Assay in all cases: inhibition of tumour cell growth, NCI panel, 384-well format
# NCI-H23 lung = system: NCI-H23 lung
# NCI-H322M lung = system: NCI-H322M lung
# NCI-H460 NSCLC = system: NCI-H460 NSCLC
# NCI-H522 lung = system: NCI-H522 lung
# NCI/ADR-RES ovarian = system: NCI/ADR-RES ovarian
# OVCAR-3 ovarian = system: OVCAR-3 ovarian
# OVCAR-4 ovarian = system: OVCAR-4 ovarian
# OVCAR-5 ovarian = system: OVCAR-5 ovarian
# OVCAR-8 ovarian = system: OVCAR-8 ovarian
# PC-3 prostate = system: PC-3 prostate
# RPMI-8226 leukemia = system: RPMI-8226 leukemia
# RXF 393 renal = system: RXF 393 renal
# SF-268 CNS = system: SF-268 CNS
# SF-295 CNS = system: SF-295 CNS
# SF-539 CNS = system: SF-539 CNS
# SK-MEL-2 melanoma = system: SK-MEL-2 melanoma
# SK-MEL-28 melanoma = system: SK-MEL-28 melanoma
# SK-MEL-5 melanoma = system: SK-MEL-5 melanoma
# SK-OV-3 ovarian = system: SK-OV-3 ovarian
# SN12C renal = system: SN12C renal
# SNB-19 CNS = system: SNB-19 CNS
# SR leukemia = system: SR leukemia
# SW-620 colon = system: SW-620 colon
# T-47D breast = system: T-47D breast
# TK-10 renal = system: TK-10 renal
# U251 glioblastoma = system: U251 glioblastoma
# UACC-257 melanoma = system: UACC-257 melanoma
# UACC-62 melanoma = system: UACC-62 melanoma
smiles,measurement,setting,value
Cc1c(CN2CCC(Nc3ncnc4sc(CC(F)(F)F)cc34)CC2)ccc2c1cc(C#N)n2Cc1cn[nH]c1,GI50,NCI-H23 lung,0.275 µM
same,TGI,NCI-H23 lung,1.42 µM
same,GI50,NCI-H322M lung,0.954 µM
same,TGI,NCI-H322M lung,2.15 µM
same,GI50,NCI-H460 NSCLC,0.409 µM
same,TGI,NCI-H460 NSCLC,1.63 µM
same,GI50,NCI-H522 lung,1.39 µM
same,TGI,NCI-H522 lung,2.68 µM
same,GI50,NCI/ADR-RES ovarian,1.58 µM
same,TGI,NCI/ADR-RES ovarian,2.94 µM
same,GI50,OVCAR-3 ovarian,1.23 µM
same,TGI,OVCAR-3 ovarian,2.48 µM
same,GI50,OVCAR-4 ovarian,0.93 µM
same,TGI,OVCAR-4 ovarian,2.14 µM
same,GI50,OVCAR-5 ovarian,1.73 µM
same,TGI,OVCAR-5 ovarian,3.12 µM
same,GI50,OVCAR-8 ovarian,1.5 µM
same,TGI,OVCAR-8 ovarian,2.84 µM
same,GI50,PC-3 prostate,1.3 µM
same,TGI,PC-3 prostate,2.58 µM
same,GI50,RPMI-8226 leukemia,0.107 µM
same,TGI,RPMI-8226 leukemia,0.77 µM
same,GI50,RXF 393 renal,0.219 µM
same,TGI,RXF 393 renal,0.709 µM
same,GI50,SF-268 CNS,1.31 µM
same,TGI,SF-268 CNS,2.59 µM
same,GI50,SF-295 CNS,1.42 µM
same,TGI,SF-295 CNS,2.73 µM
same,GI50,SF-539 CNS,1.33 µM
same,TGI,SF-539 CNS,2.62 µM
same,GI50,SK-MEL-2 melanoma,1.33 µM
same,TGI,SK-MEL-2 melanoma,2.6 µM
same,GI50,SK-MEL-28 melanoma,1.85 µM
same,TGI,SK-MEL-28 melanoma,3.26 µM
same,GI50,SK-MEL-5 melanoma,0.402 µM
same,TGI,SK-MEL-5 melanoma,1.54 µM
same,GI50,SK-OV-3 ovarian,1.33 µM
same,TGI,SK-OV-3 ovarian,2.61 µM
same,GI50,SN12C renal,1.3 µM
same,TGI,SN12C renal,2.58 µM
same,GI50,SNB-19 CNS,1.67 µM
same,TGI,SNB-19 CNS,3.04 µM
same,GI50,SR leukemia,0.137 µM
same,TGI,SR leukemia,0.279 µM
same,GI50,SW-620 colon,1.31 µM
same,TGI,SW-620 colon,2.6 µM
same,GI50,T-47D breast,0.247 µM
same,TGI,T-47D breast,1.44 µM
same,GI50,TK-10 renal,1.33 µM
same,TGI,TK-10 renal,2.62 µM
same,GI50,U251 glioblastoma,0.73 µM
same,TGI,U251 glioblastoma,2 µM
same,GI50,UACC-257 melanoma,0.772 µM
same,TGI,UACC-257 melanoma,2.06 µM
same,GI50,UACC-62 melanoma,1.65 µM
same,TGI,UACC-62 melanoma,3.02 µM
